Values quoted from earlier work in US20250215053A1, “LYSINE RICH CELL-PENETRATING PEPTIDES” (OXFORD UNIVERSITY INNOVATION LIMITED, priority 2022, published 2025).

Tested on: dystrophin
Details: in vivo

eteplirsen
dystrophin restoration: approximately 1 % of normal dystrophin levels
